Structures can show the parent of a compound that is named as a salt.
Key:
NMDA receptor [1] = test: Electrophysiology, NMDA response in rat hippocampal neurons; type: cell-based; conditions: FIG. 4; average of 6 experiments
Experimental: Experiments were carried out in 35-mm tissue culture dishes on the stage of an inverted phase contrast microscope. Whole cell currents were recorded by the whole cell variant of the patch clamp technique (Hamill, O. P., et al., Pfagers Arch. 891:85-100 (1981)). Patch electrodes had tip openings of about […] and resistances of 3-8 M.OMEGA. using an intracellular solution comprised of the following (in mM): 140 CsCl, 11 EGTA, and 10 HEPES (pH adjusted to 7.2 with CsOH). In experiments in which a high concentration of glycine was used, the intracellular solution was replaced with a low chloride (10 mM) pipette solution. This solution contained the following (in mM): 140 potassium gluconate, 10 KCl, 8 sodium gluconate, 11 EGTA, and 10 HEPES (pH adjusted to 7.2 with KOH). […]
The degree of modulation of the amino acid response by steroid, the percentage change, is expressed as [(I'/I)-1]×100%, where I is the average of control responses obtained from the same cell before application and after washout of steroid and I' is the agonist-induced current in the presence of steroid. Throughout, results are expressed as mean±S.E.; statistical comparison of groups was carried out using Student's t test.
The electrophysiology of additional pregnenolone derivatives were analyzed as described in Example 1. […]

NMDA receptor [2] = conditions: Wu et al. 1991, cited from earlier work

| SMILES | % inhibition of NMDA response in rat hippocampal cells (NMDA receptor [1]) | potentiation of the NMDA response (NMDA receptor [2]) [%] | EC50 (NMDA receptor [2]; read-out: EC50 for potentiation of the NMDA response) [µM] |
| --- | --- | --- | --- |
| CC(=O)[C@H]1CC[C@H]2[C@@H]3CC[C@@H]4C[C@H](OC(=O)CCC(=O)O)CC[C@]4(C)[C@H]3CC[C@]12C [5β3αHS, 3α-hydroxy-5β-pregnan-20-one hemisuccinate] | approximately 20% |  |  |
| CC(=O)C1CCC2C3CC=C4CC(OS(=O)(=O)O)CCC4(C)C3CCC12C (stereo not drawn) [PS, pregnenolone sulfate] |  | 197 | 57 |

Reference: patent publication US6083941A, “Inhibition of NMDA receptor activity by pregnenolone sulfate derivatives” (Trustees of Boston University, priority 1998, dated 2000)
